The test system of series [1] is Male Sprauge-Dawley rats, partial sciatic nerve ligation (PSNI model). Description: Thermal hyperalgesia (plantar test, hind paw withdrawal latency) in the partial sciatic nerve ligation (PSNI/PSNL) model. It is filed as in vivo, rat. An excerpt:
Male Sprauge-Dawley rats (200-600 g) were used in all the experiments. The rats were permitted to acclimate 1 week before use in the experiments. The rats were marked with a speed marker on their tails and normally kept in groups of 2-3 per cage pre- and postoperatively. They were housed in clear plastic cages with solid floors covered with sawdust in a normal day/night cycle. Water and food were supplied ad libitum.
The method of partial sciatic nerve injury is developed by Seltzer. Before surgery, the rats were shaved and washed with iodine solution (Iobac vet.) on the surgical area. The left sciatic nerve was exposed at high-thigh level by making a 2-3 cm incision in the skin. The skin was then freed from the connective tissue surrounding the incision in order to assure free movement of the leg after skin stapling. Using blunt dissection through the biceps femoris, the nerve was exposed and carefully freed from surrounding connective tissue at a site near the trochanter just below the point at which the posterior biceps semitendinosus nerve branches off the common sciatic nerve. Using a small pincette slid under the nerve, the nerve was gently lifted up and fixed. An 8/0 Ethilon suture was inserted into the nerve and tightly ligated so that the dorsal 1/3-1/2 of the nerve thickness was trapped in the ligature. The muscle was closed with 2-3 muscle sutures (4/0 vicryl), and the skin closed with 3-4 skin staples.
Plantar test (Ugo Basile) was used in this study to asses the nociceptive response.
The rats were placed in the clear plastic chamber (18 cm×29 cm×12.5 cm) allowed to acclimate to the new environment for about 5 min. Before testing. During this time period the rat was showing exploratory behaviour e.g. standing on its hind leg. When the rat had been acclimated, it stood quietly with occasional bouts of grooming. The radiant heat score beneath the class floor was pointed at the planter hind paw with help from the white sight marks engraved on the top of the I.R vessel.
The infrared (IR) source was then started and the withdrawal latency recorded.
When the rat felt pain and withdrew its paw, the sudden drop in radiation led to a automatic stop of the IR source and the time counter and the withdrawal latency could be determined to the nearest 0.1 sec.
The withdrawal latency was every time tested 5 times with intervals of 5 min. The average of the 5 measurements were then used as the withdrawal latency of the specific rat.
Rats, which were undergoing PSNL, were only tested on the operated left leg. 3 consecutive days before the operation, the withdrawal latency of the left leg was measured using the average of the 3 days as the basic withdrawal latency. The rat was then tested postoperatively for more days.
The difference score, expressed as percent reduction from the basic level to the postoperative level measurement, was used as an index for hyperalgesia: [formula] (pom: postoperative measurement)
Group averages appear with the standard error of the mean. The significance level of difference between means of various groups at certain postoperative times was examined by Student's t-test. The difference between the same group but at different days was examined by ANOVA.

Series [2] is described as follows: Soluble expression of TNF-α variants in E. coli. It is filed as physicochemical. An excerpt: Insertion of the PADRE epitope (SEQ ID NO: 4) into loop 3 in position Gly108-Ala109 is a promising approach to prepare TNF-α variants with a structure closely resembling the native TNF-α molecule. It has been deduced from the TNF-α crystal structure that a TH epitope inserted directly into this position will not have any neighbouring amino acid residues in close proximity to interact with.

For series [3], the system named is rats with sciatic nerve constriction injury (CCI). Conditions: spinal administration prior to CCI; cited from earlier work.
[4] abbreviates: bacterial host cells grown at 37° C.

The values that follow come from patent US20050180947A1, “Novel application of vaccination against TNF-alpha” (priority 2002, published 2005).

For the molecule `O=C1CCC(N2C(=O)c3ccccc3C2=O)C(=O)N1` (stereo not shown) [thalidomide], the “difference score in percent between the basic level and the postoperative measurement” value stood at 33.3±4.1% in series [1] (thalidomide 50 mg/kg orally daily from 2 h pre-operation, day 2); 33.9±5.9% in series [1] (thalidomide 50 mg/kg orally daily, day 4); 40.5±3.2% in series [1] (thalidomide 50 mg/kg orally daily, day 6); 41.3±3.4% in series [1] (thalidomide 50 mg/kg orally daily, day 8); 30.6±5.3% in series [1] (thalidomide 50 mg/kg orally daily, day 10); 22.0±7.2% in series [1] (thalidomide 100 mg/kg orally daily from 2 h pre-operation, day 2). In addition, the “difference score in percent between the basic level and the postoperative measurement” value in series [1] (thalidomide 100 mg/kg orally daily, day 4) is given as 32.4±6.4%; in series [1] (thalidomide 100 mg/kg orally daily, day 6), 38.0±4.1%; in series [1] (thalidomide 100 mg/kg orally daily, day 8) it was 34.1±5.4%; in series [1] (thalidomide 100 mg/kg orally daily, day 10) it was 29.8±4.6%.
Take “TNF_T0: three TNFα monomers linked by two GlyGlyGly linkers; SEQ ID NO: 22 in PCT/DK02/00764”: the “expression form in E. coli / bacterial cells” value in series [2] is reported as “soluble protein”.
For infliximab, in series [1] (infliximab 5 mg/kg i.v. 2 hours prior to PSNL, days 2, 4, 6 and 7 postoperatively), the “difference score (basic level vs postoperative withdrawal latency) versus saline control” value is “No significant differences”. For the same molecule, the “difference score in percent between the basic level and the postoperative measurement” value in series [1] (infliximab 5 μl (10 mg/ml) icv at days 2, 3 and 4, day 3) was 39.2±5.6%; in series [1] (infliximab 5 μl (10 mg/ml) icv at days 2, 3 and 4, day 4), 43.4±3.8%; in series [1] (infliximab 5 μl (10 mg/ml) icv at days 2, 3 and 4, day 6), 47.2±4.0%; in series [1] (infliximab 5 μl (10 mg/ml) icv at days 2, 3 and 4, day 8), 30.6±6.1%; in series [1] (infliximab 5 μl (10 mg/ml) icv at days 2, 3 and 4 postoperatively, day 2), 41.3±4.4%; in series [1] (infliximab (10 mg/ml) icv continuously 0.5 μl/h by osmotic pump started day 3 preoperatively, day 2) it was 34.2±5.4%. The “difference score in percent between the basic level and the postoperative measurement” value in series [1] (infliximab (10 mg/ml) icv continuously 0.5 μl/h started day 3 preoperatively, day 4) is recorded as 34.6±5.4%; in series [1] (infliximab (10 mg/ml) icv continuously 0.5 μl/h started day 3 preoperatively, day 6), 30.3±8.2%; in series [1] (infliximab (10 mg/ml) icv continuously 0.5 μl/h started day 3 preoperatively, day 8), 27.5±5.2%. In addition, the “nociceptive threshold compared to the control group” value in series [1] (infliximab 5 μl (10 mg/ml) icv at days 2, 3 and 4 postoperatively) is listed as “no significant difference”.
`Clc1cccc(Cl)c1N=C1NCCN1` [clonidine]: the “difference score in percent between the basic level and the postoperative measurement” value in series [1] (clonidine 0.6 mg/kg once at day 4 postoperatively after testing, day 5) is listed as −0.2±8.5%; in series [1] (clonidine 0.6 mg/kg orally started 2 hours pre PSNI, repeated to day 2, day 2) it was 2.6±3.1%. Further, the “delay in onset of thermal hyperestesia compared to control groups” value in series [3] was 3 days.

B1: TNF34: human TNF-α variant, PADRE epitope inserted into loop 3 at Gly108-Ala109; SEQ ID NO: 18 in PCT/DK02/00764 (protein)
chain: VRSSSRTPSDKPVAHVVANPQAEGQLQWLNRRANALLANGVELRDNQLVVPSEGLYLIYSQVLFKGQGCPSTHVLLTHTISRIAVSYQTKVNLLSAIKSPCQRETPEGAKFVAAWTLKAAAAEAKPWYEPIYLGGVFQLEKGDRLSAEINRPDYLDFAESGQVYFGIIAL
modifications: hTNF with inserted PADRE
As for B1, in series [2] (setting [4]), the “fraction expressed as inclusion bodies” value came out at 95% and the “fraction of the expressed protein soluble in E. coli” value was “approximately 5%”. For the same molecule, in series [2] (fermentation temperature 25° C.), the “yield of soluble protein from the fermentation” value is about 100%.
